The subject of series [1] is SMN2-luciferase reporter. Nature of the series: SMN2-luciferase reporter assay (clonal HEK-293 SMN2-luc cells). In kind it is cell-based, human. As to conditions: for Emax: read-out: Max % Activity; for Active: reporter assay; for Na-But RLU ave: 0.5 mg/mL sodium butyrate.
Series [2] in a line: Solubility in PBS / aqueous solution. In kind it is physicochemical.
The test system of another series is SMA mice. As to the kind of experiment: SMA mice, intraperitoneal dosing: lifespan, weight, time to right. In kind it is in vivo, mouse. The conditions noted are these: for lifespan / weight of the treated animals: words; for Time to right: individual pup, raw data. The protocol: The animal studies included new derivatives of LDN-76070 and LDN-75654. Mice were injected intraperitoneally once daily from post-natal day 1-10. […] Compounds LDN-212014, LDN-212016, LDN-212351, and LDN-212391 were injected into a cohort of animals (3-4 each). […] In the Kaplan-Meier curve that DMSO control decreased survival by 50%—the compounds were in […] (FIG. 26A).
LDN-212014 and LDN-76070 were further tested in A7 SMA model mice. Mice were dosed using compounds dissolved in 100% DMSO injected at 20 mg/kg with each dose administered once daily by intraperitoneal injection. As shown in the black curves in the Kaplan-Meier plot, control animals lived 4-5 days longer than the DMSO vehicle treated animals, indicating toxicity. […] In fact, the compounds display a statistically significant increase in survival compared with the untreated animals. These compounds extend the lifespan of SMA mice despite the DMSO toxicity.
In ‘time to right’ experiments, animals are placed on their backs and the duration for animals to right themselves is recorded. Animals that are unable to right in less than 30 seconds are scored as a failure. DMSO treated animals were unable to right themselves, while a small percentage of untreated animals display the ability to right themselves for up to postnatal day (PND) 11. A larger percentage of treated animals can right themselves past PND 17, and in the case of one animal as late as PND 21.

Series [3] in a line: Liver microsome stability. The conditions noted are these: for Stabilityin liver microsomes: Table 8; for Stability: Table 9. For orientation: Microsomes from liver hold many membrane-bound enzymes, among them those of drug oxidation.
Series [4] relates to SMN2-luciferase reporter. As to the kind of experiment: SMN2-luciferase reporter assay (clonal HEK-293 SMN2-luc cells). In kind it is cell-based, human. As to conditions: 0.5 mg/mL sodium butyrate; 384-well validation; 7,500 cells per well; 24 hrs. For orientation: A reporter such as luciferase makes a cellular process visible.
The mark [5] stands for this setting: Homo sapiens, HEK293, reporter assay, Table 6, read-out: Ec50.
The mark [6] stands for this setting: Homo sapiens, HEK293, reporter assay, Table 6.
Setting [7] is: IP once daily post-natal day 1-10, compounds in 20% DMSO, 3-4 animals each.
The mark [8] stands for this setting: IP once daily post-natal day 1-10, compounds in 20% DMSO.

pEC50: −log10 of the molar value. ≈ marks a conversion by molar mass, not a printed value. Where “and” joins values, the source holds several entries; their conditions need not be identical. Identical values can stand only once. Like-named read-outs stand apart in the source and are kept apart here. Where only a bound is given, the exact number is not on record here.

With `CC(C)c1cc(C(=O)Nc2nc3ccccc3[nH]2)no1` [LDN-212016], the pEC50 – broadly, the negative decadic logarithm of the EC50, by convention in mol/L – in the series on SMN2-luciferase reporter [1] (Homo sapiens, HEK293, Table 7, read-out: EC50) is 6.52; in the series with SMN2-luciferase reporter [1] (setting [5]), 6.52. In the series with SMN2-luciferase reporter [1] (setting [6]), the Emax is 250%. Further, the Maximum % activation in the series with SMN2-luciferase reporter [1] (Table 7) is given as 162.4 ± 62.4%. Also, in the series on SMN2-luciferase reporter [1] (Table 6), the Active entry is “Yes”. In addition, the solubility (usually the concentration that dissolves in the medium under given conditions) in series [2] (PBS, aqueous buffer, read-out: Maximal solubility in PBS) was 500 µM (≈ 135 µg/mL); in series [2] (aqueous solution, Table 8, grades, read-out: Solubility in aqueous solution), below 500 µM. Also, the lifespan entry in the series with SMA mice (setting [7]) is recorded as “extension of lifespan”. In addition, the “weight of the treated animals” value in the series with SMA mice (setting [8]) is given as “increased”. For the same molecule, the Time to right result was “Fail (Fail = >30 sec)” in the series with SMA mice (PND 6); “Fail (Fail = >30 sec) (3×) and 25 seconds” in the series with SMA mice (PND 7); “Fail (Fail = >30 sec)” in the series on SMA mice (PND 8); “Fail (Fail = >30 sec)” in the series on SMA mice (PND 9); “Fail (Fail = >30 sec) (3×) and 12 seconds” with SMA mice (PND 10); “Fail (Fail = >30 sec) (3×) and 9 seconds” in the series on SMA mice (PND 11). The Time to right entry in the series on SMA mice (PND 12) was “Fail (Fail = >30 sec)”; with SMA mice (PND 13), “dead and Fail (Fail = >30 sec) (2×) and 11 seconds”; with SMA mice (PND 14), “dead (2×) and Fail (Fail = >30 sec) (2×)”; with SMA mice (PND 15), “dead (3×) and Fail (Fail = >30 sec)”; in the series on SMA mice (PND 16) it was “dead (3×) and Fail (Fail = >30 sec)”; in the series with SMA mice (PND 17) it was “dead (3×) and Fail (Fail = >30 sec)”. The Time to right result with SMA mice (PND 18), in the series with SMA mice (PND 19) and with SMA mice (PND 20) was “dead” each time. The same molecule had a Stabilityin liver microsomes in series [3] of 3 min. In series [3], this molecule registered a Stability of 3 min.
As to `O=C(Nc1ncc(C2(O)CCC2)s1)c1ccc(F)c(Cl)c1` [LDN-212014], the pEC50 is 6.30 in the series on SMN2-luciferase reporter [1] (setting [5]) and 6.52 with SMN2-luciferase reporter [1] (Table 7, read-out: EC50). In addition, in the series with SMN2-luciferase reporter [1] (setting [6]), the Emax was determined as 180%. The same molecule displayed a Maximum % activation in the series with SMN2-luciferase reporter [1] (Table 7) of 156.6 ± 30.7%. The Active result with SMN2-luciferase reporter [1] (Table 6) is “Yes”. For the same molecule, the “Maximal solubility in PBS” value in series [2] (PBS) was above 2000 µM. The lifespan entry is listed as “extension of lifespan” with SMA mice (setting [7]) and “significantly increased lifespan” with SMA mice (SMA model mice, 20 mg/kg once daily IP in 100% DMSO, vs DMSO vehicle, p<0.0001). Moreover, in the series on SMA mice (setting [8]), the “weight of the treated animals” value is “increased”. The Time to right entry with SMA mice (PND 6) was “Fail (Fail = >30 sec)”; in the series on SMA mice (PND 6, listed as 212014) it was “dead”; with SMA mice (PND 7), “Fail (Fail = >30 sec)”; in the series with SMA mice (PND 7, listed as 212014), “dead”; with SMA mice (PND 8), “Fail (Fail = >30 sec)”; in the series with SMA mice (PND 8, listed as 212014), “dead”. The Time to right result in the series with SMA mice (PND 9) is “Fail (Fail = >30 sec) (2×) and dead and 26 seconds”; in the series on SMA mice (PND 10), “Fail (Fail = >30 sec)”; in the series with SMA mice (PND 10, listed as 212014), “dead”; in the series with SMA mice (PND 11), 5 seconds and dead and Fail (Fail = >30 sec) (2×); in the series with SMA mice (PND 12) it was 16 s; in the series on SMA mice (PND 12, listed as 212014), “dead”. In addition, the Time to right entry in the series with SMA mice (PND 13) was “Fail (Fail = >30 sec)”; in the series on SMA mice (PND 13, listed as 212014), “dead”; with SMA mice (PND 14), 5 s; in the series on SMA mice (PND 14, listed as 212014) it was “dead”; in the series with SMA mice (PND 15), 14 s; with SMA mice (PND 15, listed as 212014), “dead”. Further, the Time to right entry in the series on SMA mice (PND 16) is on record as “Fail (Fail = >30 sec)”; with SMA mice (PND 16, listed as 212014) it was “dead”; with SMA mice (PND 17), “Fail (Fail = >30 sec)”; in the series with SMA mice (PND 17, listed as 212014), “dead”; in the series with SMA mice (PND 18), “dead”; in the series with SMA mice (PND 19), “dead”. Moreover, the Time to right result with SMA mice (PND 20) is recorded as “dead”. Also, the “T1/2 in liver microsomes” value in series [3] (Table 7) was found to be 39 min. Further, in series [3], the Stabilityin liver microsomes came to 39 min. The same molecule displayed a Stability in series [3] of 39 min. Also, in series [3] (mouse, liver microsomes, t1/2 in mouse liver microsomes, mouse liver microsomes), the half-life (usually the time in which the quantity being followed falls by half) came out at 39 min.
As for `CCCC(=O)[O-].[Na+]` [Na-But], the “Na-But RLU ave” value is listed as 2046 RLU with SMN2-luciferase reporter [1] (96-well validation, 25,000 cells per well, 24 hrs); 3696 RLU in the series on SMN2-luciferase reporter [1] (96-well validation, 25,000 cells per well, 48 hrs); 4798 RLU with SMN2-luciferase reporter [1] (96-well validation, 50,000 cells per well, 24 hrs); 7505 RLU in the series on SMN2-luciferase reporter [1] (96-well validation, 50,000 cells per well, 48 hrs); 13894 RLU with SMN2-luciferase reporter [1] (384-well LDDN screen, 10,000 cells per well, 24 hrs); 1332 RLU in the series on SMN2-luciferase reporter [1] (384-well validation, 5,000 cells per well, 24 hrs). Also, the “Na-But RLU ave” value was determined as 39287 RLU with SMN2-luciferase reporter [1] (384-well validation, 10,000 cells per well, 24 hrs) and 2832 RLU in the series on SMN2-luciferase reporter [4].

The values above are taken from patent US9212209B2, “Screening methods for spinal muscular atrophy” (Indiana University Research and Technology Corporation, priority 2012, dated 2015).
